Measured values as given in publication PMC5800494 (ACS chemical biology, 2017).
Values after ≈ are worked out from the molar mass of the structure shown.

Assays:
E. coli RNAP core enzyme = E. coli RNAP core enzyme (Escherichia coli, UniProt P0A800+P0A8T7+P0A8V2); assay: AS-MS; format: binding
RNAP = RNAP (Escherichia coli, UniProt P0A800+P0A8T7+P0A8V2); assay: biochemical; parameters: species or system E. coli
[1] = target: RNAP (wild-type, co-expressed) (Escherichia coli, UniProt P0A800+P0A8T7+P0A8V2); assay: biochemical; parameters: species or system E. coli
[D516V]β-RNAP = [D516V]β-RNAP (Escherichia coli, UniProt P0A800+P0A8T7+P0A8V2, D516V); assay: biochemical; parameters: species or system E. coli
[H526D]β-RNAP = [H526D]β-RNAP (Escherichia coli, UniProt P0A800+P0A8T7+P0A8V2, H526D); assay: biochemical; parameters: species or system E. coli
[S531L]β-RNAP = [S531L]β-RNAP (Escherichia coli, UniProt P0A800+P0A8T7+P0A8V2, S531L); assay: biochemical; parameters: species or system E. coli
[D622G]β′-RNAP = Fluorescence-detected RNAP inhibition assay; format: biochemical, E. coli; details: enzyme: [D622G]β′-RNAP vs RNAP (co-expressed)
RNAP (reconstituted) = RNAP (reconstituted) (Escherichia coli, UniProt P0A800+P0A8T7+P0A8V2); assay: biochemical; format: biochemical, E. coli
Δω RNAP = format: biochemical, E. coli; details: enzyme: Δω RNAP vs RNAP (reconstituted)
[2] = tested on: E. coli MB5746 (lpxC tolC); assay: Broth microdilution MIC; format: cell-based; details: Escherichia coli
[3] = tested on: E. coli D21f2tolC (rfa tolC); assay: Broth microdilution MIC; format: cell-based; details: Escherichia coli
[4] = tested on: E. coli D21f2tolC Rif^R-D516V (rfa tolC rpoB-D516V); assay: Broth microdilution MIC; format: cell-based; details: Escherichia coli
[5] = tested on: E. coli D21f2tolC Rif^R-H526D (rfa tolC rpoB-H526D); assay: Broth microdilution MIC; format: cell-based; details: Escherichia coli
[6] = tested on: E. coli D21f2tolC Rif^R-S531L (rfa tolC rpoB-S531L); assay: Broth microdilution MIC; format: cell-based; details: Escherichia coli
[7] = tested on: E. coli MB5746 RpoC (RNAP β′ subunit) D622G mutant; assay: Broth microdilution MIC on MRL-436-resistant mutant; format: cell-based; details: RpoC D622G mutant of MB5746
[8] = tested on: E. coli MB5746 RpoZ (RNAP ω subunit) Δ13–91 (frameshift) mutant; assay: as above; format: cell-based; details: RpoZ Δ13–91 (frameshift) mutant of MB5746
[9] = tested on: E. coli MB5746 RpoZ (RNAP ω subunit) Δ21–91 (frameshift) mutant; assay: as above; format: cell-based; details: RpoZ Δ21–91 (frameshift) mutant of MB5746
[10] = tested on: E. coli MB5746 RpoZ (RNAP ω subunit) Δ23–91 (frameshift) mutant; assay: as above; format: cell-based; details: RpoZ Δ23–91 (frameshift) mutant of MB5746
[11] = tested on: E. coli MB5746 RpoZ (RNAP ω subunit) Δ24–91 (frameshift) mutant; assay: as above; format: cell-based; details: RpoZ Δ24–91 (frameshift) mutant of MB5746
[12] = tested on: E. coli MB5746 RpoZ (RNAP ω subunit) Δ35–91 (frameshift) mutant; assay: as above; format: cell-based; details: RpoZ Δ35–91 (frameshift) mutant of MB5746
[13] = tested on: E. coli MB5746 RpoZ (RNAP ω subunit) Δ1–91 (deletion); assay: Broth microdilution MIC on constructed ΔrpoZ strain; format: cell-based; details: RpoZ Δ1–91 (deletion) of MB5746
yeast invertase = yeast invertase (Saccharomyces cerevisiae, UniProt P00724); details: compound at 10 μM against 5μM invertase

CO[C@H]1/C=C/O[C@@]2(C)Oc3c(C)c(O)c4c(O)c(c(/C=N/N5CCN(C)CC5)c(O)c4c3C2=O)NC(=O)/C(C)=C\C=C\[C@H](C)[C@H](O)[C@@H](C)[C@@H](O)[C@@H](C)[C@H](OC(C)=O)[C@@H]1C [Rif, rifampin]
Kd (E. coli RNAP core enzyme): < 2000 nM | IC50 (RNAP): 20 nM | IC50 [1]: 30 nM | IC50 ratio (IC50/IC50wild-type) ([1]; enzyme: RNAP (co-expressed)): 1 | IC50 ([D516V]β-RNAP): 70000 nM | IC50 ([H526D]β-RNAP): > 100000 nM | IC50 ([S531L]β-RNAP): 80000 nM | IC50 ratio (IC50/IC50wild-type) ([D622G]β′-RNAP): 1 | IC50 (RNAP (reconstituted)): 40 nM | IC50 ratio (IC50/IC50wild-type) (RNAP (reconstituted); enzyme: RNAP (reconstituted)): 1 | IC50 ratio (IC50/IC50wild-type) (Δω RNAP): 0.5 | MIC [2]: 0.5 µg/mL (≈ 0.608 µM) | MIC [3]: 0.5 µg/mL (≈ 0.608 µM) | MIC [4]: 32 µg/mL (≈ 38.9 µM) | MIC [5]: 128 µg/mL (≈ 156 µM) | MIC [6]: 64 µg/mL (≈ 77.8 µM) | resistance level (MIC/MICwild-type) [7]: 1 | resistance level (MIC/MICwild-type) [8]: 1 | resistance level (MIC/MICwild-type) [9]: 1 | resistance level (MIC/MICwild-type) [10]: 1 | resistance level (MIC/MICwild-type) [11]: 1 | resistance level (MIC/MICwild-type) [12]: 1 | resistance level (MIC/MICwild-type) [13]: 1 | AS-MS signal against invertase (selectivity counter-screen) (yeast invertase): did not show an AS-MS signal
